Data reported in patent US7179836B2, “Chemical compounds” (SmithKline Beecham Corporation, priority 2001, dated 2007).

Molecular target: Recombinant GST-Tie2 (Homo sapiens, UniProt Q02763)
Assay: Tie2 fluorescence polarization kinase activity assay (TIE2-FP)
Assay type: biochemical
Details: 200 μM ATP, 1 nM activated enzyme, 200 μM peptide
Protocol: Tie2 Fluorescence Polarization Kinase Activity Assay (TIE2-FP).
Activation of Recombinant Tie2 Activation:
Recombinant GST-Tie2 is activated by incubating the enzyme in 20 mM Tris-HCl, pH 7.5, 12 mM MgCl2, 100 mM NaCl, 20 μM sodium vanidate, 1 mM DTT and 300 μM ATP at room temperature for 2 hours. The activation mixture is then passed through a NAP-25 desalting column (Pharmacia Biotech cat. no. 17-0852-02) to remove the free ATP. The activated enzyme is stored as aliquots at −80° C. in 20 mM Tris-HCl, pH 7.5 and 100 mM NaCl.
The final assay conditions are 50 mM HEPES, pH 7.5, 5% DMSO (when screening compounds), 200 μM ATP, 5 mM MgCl2, 1 mM DTT, 50 μM sodium vanidate, 1 nM activated enzyme, and 200 μM peptide. IC50's of compounds are measured under subsaturating ATP (200 μM) and varing concentrations of activated Tie2 and peptide substrate (RFWKYEFWR-OH; MW 1873 Da, TFA salt). Panvera Anti-phosphotyrosine antibody (Cat#P2840) and PTK Green Tracer (Cat#P2842) are used to detect the phosphorylated peptide. Polarization is measured on a TECAN Polarion in 138-second cycles for 30 minutes at room temperature. IC50's are then determined from the % polarization using normal calculation methods.

Chain of Recombinant GST-Tie2 (Q02763 23-1124): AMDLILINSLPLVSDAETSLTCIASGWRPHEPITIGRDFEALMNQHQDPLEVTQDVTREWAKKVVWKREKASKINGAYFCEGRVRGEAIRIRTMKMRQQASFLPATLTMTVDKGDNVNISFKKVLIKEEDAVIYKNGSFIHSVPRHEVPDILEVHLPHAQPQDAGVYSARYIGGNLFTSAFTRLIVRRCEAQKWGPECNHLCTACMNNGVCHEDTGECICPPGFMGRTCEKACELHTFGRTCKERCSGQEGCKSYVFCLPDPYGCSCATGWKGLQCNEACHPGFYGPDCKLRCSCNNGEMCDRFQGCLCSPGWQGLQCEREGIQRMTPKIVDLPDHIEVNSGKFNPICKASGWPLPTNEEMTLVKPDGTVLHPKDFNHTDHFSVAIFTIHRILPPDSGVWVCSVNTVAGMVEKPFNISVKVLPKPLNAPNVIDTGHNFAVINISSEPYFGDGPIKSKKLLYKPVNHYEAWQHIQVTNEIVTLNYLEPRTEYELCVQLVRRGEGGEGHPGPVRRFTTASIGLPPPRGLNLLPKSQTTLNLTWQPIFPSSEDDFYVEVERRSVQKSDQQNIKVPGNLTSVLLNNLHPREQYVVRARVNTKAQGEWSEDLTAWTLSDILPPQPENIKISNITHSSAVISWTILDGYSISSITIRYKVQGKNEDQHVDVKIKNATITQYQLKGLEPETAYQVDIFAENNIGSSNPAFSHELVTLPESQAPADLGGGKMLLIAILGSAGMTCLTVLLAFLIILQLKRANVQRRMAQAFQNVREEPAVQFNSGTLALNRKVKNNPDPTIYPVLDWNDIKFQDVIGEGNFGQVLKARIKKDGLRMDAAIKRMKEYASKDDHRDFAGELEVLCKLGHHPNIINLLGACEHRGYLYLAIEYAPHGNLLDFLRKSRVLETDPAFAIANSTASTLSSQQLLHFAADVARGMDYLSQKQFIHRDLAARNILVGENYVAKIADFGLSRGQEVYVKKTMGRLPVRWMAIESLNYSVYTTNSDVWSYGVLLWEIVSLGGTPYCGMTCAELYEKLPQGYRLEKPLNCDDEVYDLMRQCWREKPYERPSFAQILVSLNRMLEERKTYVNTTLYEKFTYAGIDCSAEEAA

IC50: < 100 nM
SMILES: NC(=O)c1c(-c2ccc(NC(=O)Nc3cc(C(F)(F)F)ccc3F)cc2)csc1N [Example 1, 2-Amino-4-{4-[3-(2-fluoro-5-trifluoromethyl-phenyl)-ureido]-phenyl}-thiophene-3-carboxylic acid amide]
